In PubChem BioAssay (NCI):
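How tested: cells in 96-well plates exposed to compound for 48 hours at five concentrations. GI50 marks 50% less growth. TGI is the concentration that stops growth completely.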

Key:
Assay in all cases: NCI-60 cell line screen, 48 h; in the data active = GI50 below about 0.43 µM; inactive = the rest
MCF7 breast = system: MCF7 breast
SK-MEL-5 melanoma = system: SK-MEL-5 melanoma
PC-3 prostate = system: PC-3 prostate
NCI-H226 lung = system: NCI-H226 lung
MDA-MB-435 = system: MDA-MB-435
A498 renal = system: A498 renal
KM12 colon = system: KM12 colon
OVCAR-4 ovarian = system: OVCAR-4 ovarian
HOP-92 NSCLC = system: HOP-92 NSCLC
RXF 393 renal = system: RXF 393 renal
IGROV1 ovarian = system: IGROV1 ovarian
TK-10 renal = system: TK-10 renal
U251 CNS = system: U251 CNS
NCI-H522 lung = system: NCI-H522 lung
UACC-257 melanoma = system: UACC-257 melanoma
SNB-75 CNS = system: SNB-75 CNS
HT29 colon = system: HT29 colon
M14 melanoma = system: M14 melanoma
LOX IMVI melanoma = system: LOX IMVI melanoma
NCI-H460 lung = system: NCI-H460 lung
BT-549 breast = system: BT-549 breast
K-562 leukemia = system: K-562 leukemia
A549 NSCLC = system: A549 NSCLC
MOLT-4 leukemia = system: MOLT-4 leukemia
T-47D breast = system: T-47D breast
SW-620 colon = system: SW-620 colon
HOP-62 NSCLC = system: HOP-62 NSCLC
SK-MEL-28 melanoma = system: SK-MEL-28 melanoma
SK-MEL-2 melanoma = system: SK-MEL-2 melanoma
SK-OV-3 ovarian = system: SK-OV-3 ovarian
SR leukemia = system: SR leukemia
SF-295 CNS = system: SF-295 CNS
RPMI-8226 leukemia = system: RPMI-8226 leukemia
UACC-62 melanoma = system: UACC-62 melanoma
COLO 205 colon = system: COLO 205 colon
OVCAR-8 ovarian = system: OVCAR-8 ovarian
ACHN renal = system: ACHN renal
HL-60(TB) leukemia = system: HL-60(TB) leukemia
MDA-MB-231 breast = system: MDA-MB-231 breast
786-0 renal = system: 786-0 renal
HCC-2998 colon = system: HCC-2998 colon
CCRF-CEM leukemia = system: CCRF-CEM leukemia
SNB-19 CNS = system: SNB-19 CNS
SF-268 CNS = system: SF-268 CNS
SN12C renal = system: SN12C renal
CAKI-1 renal = system: CAKI-1 renal
HCT-15 colon = system: HCT-15 colon
UO-31 renal = system: UO-31 renal
NCI-H23 lung = system: NCI-H23 lung
NCI/ADR-RES ovarian = system: NCI/ADR-RES ovarian
OVCAR-3 ovarian = system: OVCAR-3 ovarian
MALME-3M melanoma = system: MALME-3M melanoma
SF-539 CNS = system: SF-539 CNS
HS 578T breast = system: HS 578T breast
HCT-116 colon = system: HCT-116 colon
OVCAR-5 ovarian = system: OVCAR-5 ovarian
DU-145 prostate = system: DU-145 prostate
EKVX NSCLC = system: EKVX NSCLC

CC(C)C[C@H](NC(=O)[C@@H](O)[C@H](N)Cc1ccccc1)C(=O)O
inactive: GI50 (A498 renal) > 100 µM | GI50 (NCI-H522 lung) > 100 µM | GI50 (BT-549 breast) > 100 µM | GI50 (UO-31 renal) > 100 µM
> 100 µM: TGI (MCF7 breast) | TGI (SK-MEL-5 melanoma) | TGI (PC-3 prostate) | TGI (NCI-H226 lung) | TGI (MDA-MB-435) | TGI (A498 renal) | TGI (KM12 colon) | TGI (OVCAR-4 ovarian) | TGI (HOP-92 NSCLC) | TGI (RXF 393 renal) | TGI (IGROV1 ovarian) | TGI (TK-10 renal) | TGI (U251 CNS) | TGI (NCI-H522 lung) | TGI (UACC-257 melanoma) | TGI (SNB-75 CNS) | TGI (HT29 colon) | TGI (M14 melanoma) | TGI (LOX IMVI melanoma) | TGI (NCI-H460 lung) | TGI (BT-549 breast) | TGI (K-562 leukemia) | TGI (A549 NSCLC) | TGI (MOLT-4 leukemia) | TGI (T-47D breast) | TGI (SW-620 colon) | TGI (HOP-62 NSCLC) | TGI (SK-MEL-28 melanoma) | TGI (SK-MEL-2 melanoma) | TGI (SK-OV-3 ovarian) | TGI (SR leukemia) | TGI (SF-295 CNS) | TGI (RPMI-8226 leukemia) | TGI (UACC-62 melanoma) | TGI (COLO 205 colon) | TGI (OVCAR-8 ovarian) | TGI (ACHN renal) | TGI (HL-60(TB) leukemia) | TGI (MDA-MB-231 breast) | TGI (786-0 renal) | TGI (HCC-2998 colon) | TGI (CCRF-CEM leukemia) | TGI (SNB-19 CNS) | TGI (SF-268 CNS) | TGI (SN12C renal) | TGI (CAKI-1 renal) | TGI (HCT-15 colon) | TGI (UO-31 renal) | TGI (NCI-H23 lung) | TGI (NCI/ADR-RES ovarian) | TGI (OVCAR-3 ovarian) | TGI (MALME-3M melanoma) | TGI (SF-539 CNS) | TGI (HS 578T breast) | TGI (HCT-116 colon) | TGI (OVCAR-5 ovarian) | TGI (DU-145 prostate)

COc1ccc(S(=O)(=O)NCCNc2nccc(-c3c(-c4ccccc4)nc4sccn34)n2)cc1
> 100 µM: TGI (MCF7 breast) | TGI (PC-3 prostate) | TGI (NCI-H226 lung) | TGI (MDA-MB-435) | TGI (KM12 colon) | TGI (OVCAR-4 ovarian) | TGI (IGROV1 ovarian) | TGI (TK-10 renal) | TGI (U251 CNS) | TGI (NCI-H522 lung) | TGI (UACC-257 melanoma) | TGI (HT29 colon) | TGI (M14 melanoma) | TGI (LOX IMVI melanoma) | TGI (NCI-H460 lung) | TGI (BT-549 breast) | TGI (A549 NSCLC) | TGI (T-47D breast) | TGI (SW-620 colon) | TGI (EKVX NSCLC) | TGI (HOP-62 NSCLC) | TGI (SK-MEL-28 melanoma) | TGI (SK-MEL-2 melanoma) | TGI (SK-OV-3 ovarian) | TGI (SR leukemia) | TGI (SF-295 CNS) | TGI (UACC-62 melanoma) | TGI (COLO 205 colon) | TGI (OVCAR-8 ovarian) | TGI (ACHN renal) | TGI (HL-60(TB) leukemia) | TGI (786-0 renal) | TGI (HCC-2998 colon) | TGI (SNB-19 CNS) | TGI (SF-268 CNS) | TGI (SN12C renal) | TGI (CAKI-1 renal) | TGI (HCT-15 colon) | TGI (UO-31 renal) | TGI (NCI-H23 lung) | TGI (NCI/ADR-RES ovarian) | TGI (OVCAR-3 ovarian) | TGI (MALME-3M melanoma) | TGI (SF-539 CNS) | TGI (HCT-116 colon) | TGI (OVCAR-5 ovarian) | TGI (DU-145 prostate)
91 µM: TGI (RXF 393 renal)
8.9 µM: TGI (A498 renal)
65.7 µM: TGI (HOP-92 NSCLC)
inactive: GI50 (MCF7 breast) 0.873 µM | GI50 (PC-3 prostate) 1.64 µM | GI50 (NCI-H226 lung) 4.66 µM | GI50 (MDA-MB-435) 1.22 µM | GI50 (A498 renal) 1.16 µM | GI50 (KM12 colon) 0.513 µM | GI50 (OVCAR-4 ovarian) 3.62 µM | GI50 (HOP-92 NSCLC) 3.73 µM | GI50 (RXF 393 renal) 5.71 µM | GI50 (IGROV1 ovarian) 2.13 µM | GI50 (TK-10 renal) 5.07 µM | GI50 (U251 CNS) 5.17 µM | GI50 (NCI-H522 lung) 4.64 µM | GI50 (UACC-257 melanoma) 6.47 µM | GI50 (SNB-75 CNS) 1.82 µM | GI50 (HT29 colon) 1.72 µM | GI50 (M14 melanoma) 2.77 µM | GI50 (LOX IMVI melanoma) 3.94 µM | GI50 (NCI-H460 lung) 1.24 µM | GI50 (BT-549 breast) 3.56 µM | GI50 (A549 NSCLC) 1.61 µM | GI50 (T-47D breast) 3.17 µM | GI50 (SW-620 colon) 5.03 µM | GI50 (EKVX NSCLC) 7.11 µM | GI50 (HOP-62 NSCLC) 15.3 µM | GI50 (SK-MEL-28 melanoma) 5.79 µM | GI50 (SK-MEL-2 melanoma) 4.98 µM | GI50 (SK-OV-3 ovarian) 4.18 µM | GI50 (SR leukemia) 0.784 µM | GI50 (SF-295 CNS) 6.52 µM | GI50 (UACC-62 melanoma) 1.17 µM | GI50 (COLO 205 colon) 2.66 µM | GI50 (OVCAR-8 ovarian) 3.08 µM | GI50 (ACHN renal) 2.02 µM | GI50 (HL-60(TB) leukemia) 2.87 µM | GI50 (786-0 renal) 3.42 µM | GI50 (HCC-2998 colon) 16.1 µM | GI50 (SNB-19 CNS) 8.78 µM | GI50 (SF-268 CNS) 3.74 µM | GI50 (SN12C renal) 1.93 µM | GI50 (CAKI-1 renal) 1.29 µM | GI50 (HCT-15 colon) 2.42 µM | GI50 (UO-31 renal) 0.706 µM | GI50 (NCI-H23 lung) 7.35 µM | GI50 (NCI/ADR-RES ovarian) 5.18 µM | GI50 (OVCAR-3 ovarian) 3.56 µM | GI50 (MALME-3M melanoma) 8.77 µM | GI50 (SF-539 CNS) 13.7 µM | GI50 (HS 578T breast) 2.18 µM | GI50 (HCT-116 colon) 1.58 µM | GI50 (OVCAR-5 ovarian) > 100 µM | GI50 (DU-145 prostate) 3.37 µM
47.4 µM: TGI (HS 578T breast)
9.54 µM: TGI (SNB-75 CNS)
